# Measured values published in PubChem BioAssay AID1963973 (Molecular Pharmacology Branch, DTP, NCI, 2024).
# Tested on: 883617-216-R-J1-PDC tumor spheroids, viability
# Assay: Anticancer human tumor 883617-216-R-J1-PDC patient-derived bladder carcinoma cell line growth inhibition [PI3K]
# Details: spheroids with HUVEC and MSC; for IC50: curve of first compound; for viability, T/C: stronger effect = lower value
# Procedure, shortened: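 Viability of mixed-cell spheroids was determined after exposure to pairwise combinations, one partner being inavolisib, alpelisib, duvelisib or copanlisib. Highest tested concentration matched clinical Cmax where known and 10 microM where not, descending in half-log steps.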
# [1] = second compound 0.00316 µM, first compound 0.0316 µM
# [2] = second compound 0.00316 µM, first compound 0.1 µM
# [3] = second compound 0.00316 µM, first compound 0.316 µM
# [4] = second compound 0.00316 µM, first compound 1 µM
# [5] = second compound 0.00316 µM, first compound 3.16 µM
# [6] = second compound 0.00316 µM, first compound 10 µM
# [7] = second compound 0.01 µM, first compound 0.0316 µM
# [8] = second compound 0.01 µM, first compound 0.1 µM
# [9] = second compound 0.01 µM, first compound 0.316 µM
# [10] = second compound 0.01 µM, first compound 1 µM
# [11] = second compound 0.01 µM, first compound 3.16 µM
# [12] = second compound 0.01 µM, first compound 10 µM
# [13] = second compound 0.0316 µM, first compound 0.0316 µM
# [14] = second compound 0.0316 µM, first compound 0.1 µM
# [15] = second compound 0.0316 µM, first compound 0.316 µM
# [16] = second compound 0.0316 µM, first compound 1 µM
# [17] = second compound 0.0316 µM, first compound 3.16 µM
# [18] = second compound 0.0316 µM, first compound 10 µM
# [19] = second compound 0.1 µM, first compound 0.0316 µM
# [20] = second compound 0.1 µM, first compound 0.1 µM
# [21] = second compound 0.1 µM, first compound 0.316 µM
# [22] = second compound 0.1 µM, first compound 1 µM
# [23] = second compound 0.1 µM, first compound 3.16 µM
# [24] = second compound 0.1 µM, first compound 10 µM
# [25] = second compound 0.316 µM, first compound 0.0316 µM
# [26] = second compound 0.316 µM, first compound 0.1 µM
# [27] = second compound 0.316 µM, first compound 0.316 µM
# [28] = second compound 0.316 µM, first compound 1 µM
# [29] = second compound 0.316 µM, first compound 3.16 µM
# [30] = second compound 0.316 µM, first compound 10 µM
# [31] = second compound 1 µM, first compound 0.0316 µM
# [32] = second compound 1 µM, first compound 0.1 µM
# [33] = second compound 1 µM, first compound 0.316 µM
# [34] = second compound 1 µM, first compound 1 µM
# [35] = second compound 1 µM, first compound 3.16 µM
# [36] = second compound 1 µM, first compound 10 µM
# 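Further: spheroids exposed to agents for 7 days before the viability read.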
smiles,measurement,setting,value
C#Cc1c(F)ccc2cc(O)cc(-c3ncc4c(N5CC6CCC(C5)N6)nc(OCC56CCCN5CC(F)C6)nc4c3F)c12 (stereo not given) + CC(Nc1ccc2c(c1)OCCn1cc(N3C(=O)OCC3C(F)F)nc1-2)C(N)=O,IC50,second compound 0.00316 µM,> 10000 nM
same,IC50,second compound 0.01 µM,> 10000 nM
same,IC50,second compound 0.0316 µM,6510 nM
same,IC50,second compound 0.1 µM,< 31.6 nM
same,IC50,second compound 0.316 µM,< 31.6 nM
same,IC50,second compound 1 µM,< 31.6 nM
same,"viability, T/C",[1],85.3%
same,"viability, T/C",[2],89.7%
same,"viability, T/C",[3],84.8%
same,"viability, T/C",[4],91.2%
same,"viability, T/C",[5],79.6%
same,"viability, T/C",[6],54.8%
same,"viability, T/C",[7],87.9%
same,"viability, T/C",[8],88.4%
same,"viability, T/C",[9],88.3%
same,"viability, T/C",[10],85%
same,"viability, T/C",[11],74.3%
same,"viability, T/C",[12],53.2%
same,"viability, T/C",[13],79.9%
same,"viability, T/C",[14],75.3%
same,"viability, T/C",[15],64.9%
same,"viability, T/C",[16],88.5%
same,"viability, T/C",[17],62.4%
same,"viability, T/C",[18],40.2%
same,"viability, T/C",[19],41.1%
same,"viability, T/C",[20],39.7%
same,"viability, T/C",[21],42.7%
same,"viability, T/C",[22],39.6%
same,"viability, T/C",[23],31%
same,"viability, T/C",[24],21%
same,"viability, T/C",[25],27.6%
same,"viability, T/C",[26],21.4%
same,"viability, T/C",[27],21.4%
same,"viability, T/C",[28],24.6%
same,"viability, T/C",[29],16.7%
same,"viability, T/C",[30],16.8%
same,"viability, T/C",[31],13.4%
same,"viability, T/C",[32],16.9%
same,"viability, T/C",[33],17.1%
same,"viability, T/C",[34],12.8%
same,"viability, T/C",[35],14.2%
same,"viability, T/C",[36],8%
C=CC(=O)N1CCN(c2nc(=O)n(-c3c(C)ccnc3C(C)C)c3nc(-c4c(O)cccc4F)c(F)cc23)C(C)C1 (stereo not given) + CC(Nc1ccc2c(c1)OCCn1cc(N3C(=O)OCC3C(F)F)nc1-2)C(N)=O,IC50,second compound 0.00316 µM,> 10000 nM
same,IC50,second compound 0.01 µM,31.6 nM
same,IC50,second compound 0.0316 µM,< 31.6 nM
same,IC50,second compound 0.1 µM,< 31.6 nM
same,IC50,second compound 0.316 µM,< 31.6 nM
same,IC50,second compound 1 µM,< 31.6 nM
same,"viability, T/C",[1],59%
same,"viability, T/C",[2],49.2%
same,"viability, T/C",[3],52.5%
same,"viability, T/C",[4],70.5%
same,"viability, T/C",[5],70.8%
same,"viability, T/C",[6],56.5%
same,"viability, T/C",[7],57.8%
same,"viability, T/C",[8],51.8%
same,"viability, T/C",[9],47.7%
same,"viability, T/C",[10],44.5%
same,"viability, T/C",[11],56.5%
same,"viability, T/C",[12],61.1%
same,"viability, T/C",[13],45%
same,"viability, T/C",[14],38.2%
same,"viability, T/C",[15],30.8%
same,"viability, T/C",[16],40.9%
same,"viability, T/C",[17],42.6%
same,"viability, T/C",[18],49.7%
same,"viability, T/C",[19],25.3%
same,"viability, T/C",[20],21.6%
same,"viability, T/C",[21],19.3%
same,"viability, T/C",[22],25.7%
same,"viability, T/C",[23],30.4%
same,"viability, T/C",[24],25.3%
same,"viability, T/C",[25],13.5%
same,"viability, T/C",[26],13.4%
same,"viability, T/C",[27],11%
same,"viability, T/C",[28],14.6%
same,"viability, T/C",[29],15.5%
same,"viability, T/C",[30],17.3%
same,"viability, T/C",[31],10.3%
same,"viability, T/C",[32],9.98%
same,"viability, T/C",[33],7.7%
same,"viability, T/C",[34],7.88%
same,"viability, T/C",[35],12.1%
same,"viability, T/C",[36],9.67%
CC(Cn1ccc(-c2ccc(C#N)c(Cl)c2)n1)NC(=O)c1cc(C(C)O)[nH]n1 (stereo not given) + CC(Nc1ccc2c(c1)OCCn1cc(N3C(=O)OCC3C(F)F)nc1-2)C(N)=O,IC50,second compound 0.00316 µM,> 10000 nM
same,IC50,second compound 0.01 µM,> 10000 nM
same,IC50,second compound 0.0316 µM,> 10000 nM
same,IC50,second compound 0.1 µM,< 31.6 nM
same,IC50,second compound 0.316 µM,< 31.6 nM
same,IC50,second compound 1 µM,< 31.6 nM
same,"viability, T/C",[1],86.4%
same,"viability, T/C",[2],85.9%
same,"viability, T/C",[3],84.1%
same,"viability, T/C",[4],80.4%
same,"viability, T/C",[5],90.8%
same,"viability, T/C",[6],73.1%
same,"viability, T/C",[7],84%
same,"viability, T/C",[8],74.7%
same,"viability, T/C",[9],80.1%
same,"viability, T/C",[10],84%
same,"viability, T/C",[11],90.5%
same,"viability, T/C",[12],86.5%
same,"viability, T/C",[13],64.2%
same,"viability, T/C",[14],79.4%
same,"viability, T/C",[15],79.1%
same,"viability, T/C",[16],80.3%
same,"viability, T/C",[17],74.8%
same,"viability, T/C",[18],67.4%
same,"viability, T/C",[19],46.6%
same,"viability, T/C",[20],49.3%
same,"viability, T/C",[21],55.1%
same,"viability, T/C",[22],48.9%
same,"viability, T/C",[23],43.7%
same,"viability, T/C",[24],44.9%
same,"viability, T/C",[25],25.3%
same,"viability, T/C",[26],27.9%
same,"viability, T/C",[27],27.9%
same,"viability, T/C",[28],26.9%
same,"viability, T/C",[29],26.8%
same,"viability, T/C",[30],23.2%
same,"viability, T/C",[31],15.8%
same,"viability, T/C",[32],15%
same,"viability, T/C",[33],17%
same,"viability, T/C",[34],14.9%
same,"viability, T/C",[35],17.4%
same,"viability, T/C",[36],17.3%
CC1(C)CCC(Nc2ncc(C(F)(F)F)c(-c3c[nH]c4c(P(C)(C)=O)c(C#N)ccc34)n2)CN1 (stereo not given) + CC(Nc1ccc2c(c1)OCCn1cc(N3C(=O)OCC3C(F)F)nc1-2)C(N)=O,IC50,second compound 0.00316 µM,< 31.6 nM
same,IC50,second compound 0.01 µM,< 31.6 nM
same,IC50,second compound 0.0316 µM,< 31.6 nM
same,IC50,second compound 0.1 µM,< 31.6 nM
same,IC50,second compound 0.316 µM,< 31.6 nM
same,IC50,second compound 1 µM,< 31.6 nM
same,"viability, T/C",[1],31.5%
same,"viability, T/C",[2],17.9%
same,"viability, T/C",[3],17.6%
same,"viability, T/C",[4],14%
same,"viability, T/C",[5],6.49%
same,"viability, T/C",[6],0.36%
same,"viability, T/C",[7],30.4%
same,"viability, T/C",[8],23.2%
same,"viability, T/C",[9],19.7%
same,"viability, T/C",[10],18.7%
same,"viability, T/C",[11],6.21%
same,"viability, T/C",[12],0.37%
same,"viability, T/C",[13],30.2%
same,"viability, T/C",[14],18.7%
same,"viability, T/C",[15],21.8%
same,"viability, T/C",[16],14.3%
same,"viability, T/C",[17],4.74%
same,"viability, T/C",[18],0.17%
same,"viability, T/C",[19],25.5%
same,"viability, T/C",[20],17.6%
same,"viability, T/C",[21],19.1%
same,"viability, T/C",[22],12.2%
same,"viability, T/C",[23],4.58%
same,"viability, T/C",[24],0.1%
same,"viability, T/C",[25],21.6%
same,"viability, T/C",[26],15.4%
same,"viability, T/C",[27],14.2%
same,"viability, T/C",[28],10.8%
same,"viability, T/C",[29],3%
same,"viability, T/C",[30],0.12%
same,"viability, T/C",[31],13.9%
same,"viability, T/C",[32],10.4%
same,"viability, T/C",[33],9.92%
same,"viability, T/C",[34],12.2%
same,"viability, T/C",[35],2.77%
same,"viability, T/C",[36],0.33%
Cn1nccc1Nc1nccc(-c2ccn(C(CO)c3ccc(Cl)c(F)c3)c(=O)c2)n1 (stereo not given) + CC(Nc1ccc2c(c1)OCCn1cc(N3C(=O)OCC3C(F)F)nc1-2)C(N)=O,IC50,second compound 0.00316 µM,9310 nM
same,IC50,second compound 0.01 µM,> 10000 nM
same,IC50,second compound 0.0316 µM,888 nM
same,IC50,second compound 0.1 µM,< 31.6 nM
same,IC50,second compound 0.316 µM,< 31.6 nM
same,IC50,second compound 1 µM,< 31.6 nM
same,"viability, T/C",[1],83.2%
same,"viability, T/C",[2],67.5%
same,"viability, T/C",[3],80.3%
same,"viability, T/C",[4],75.6%
same,"viability, T/C",[5],80.1%
same,"viability, T/C",[6],48.1%
same,"viability, T/C",[7],85.6%
same,"viability, T/C",[8],74.7%
same,"viability, T/C",[9],77.3%
same,"viability, T/C",[10],64.2%
same,"viability, T/C",[11],58.2%
same,"viability, T/C",[12],50.1%
same,"viability, T/C",[13],66.5%
same,"viability, T/C",[14],65.9%
same,"viability, T/C",[15],67.1%
same,"viability, T/C",[16],48.1%
same,"viability, T/C",[17],35.9%
same,"viability, T/C",[18],34.2%
same,"viability, T/C",[19],44%
same,"viability, T/C",[20],45.1%
same,"viability, T/C",[21],38.1%
same,"viability, T/C",[22],37.1%
same,"viability, T/C",[23],27.6%
same,"viability, T/C",[24],22.4%
same,"viability, T/C",[25],25.1%
same,"viability, T/C",[26],22.8%
same,"viability, T/C",[27],17.2%
same,"viability, T/C",[28],16.2%
same,"viability, T/C",[29],15.2%
same,"viability, T/C",[30],9.06%
same,"viability, T/C",[31],14.9%
same,"viability, T/C",[32],13.6%
same,"viability, T/C",[33],12%
same,"viability, T/C",[34],11%
same,"viability, T/C",[35],9.01%
same,"viability, T/C",[36],6.11%
